The text below walks through data of PMC6285983, “Novel broad spectrum virucidal molecules against enveloped viruses” (PLoS ONE, 2018).

Some results are limits rather than exact numbers.

The melting point is the temperature of the solid-liquid transition. As a reminder, the EC50 is the concentration giving half of the maximal effect. Broadly, the EC90 is the concentration at which the effect reaches the 90% level.

Data set [1] can be described thus: Cell viability MTS assay on Vero cells. The settings on record: African green monkey, CC50, Vero cells, MTS.
A further data set has as its system HSV-2. As to the kind of experiment: HSV-2 plaquing efficiency assay, compound preincubated with virus 1 h at 37°C. Format: cell-based. The settings on record: Human alphaherpesvirus 2, HSV-2, Vero cells, 1 h pre-incubation virus/compound; for EC50: plaques at 24 h, read-out: EC50 (95% C.I.); for EC90: read-out: EC90 (95% C.I.).
The next data set in a line: in vitro. The settings on record: African green monkey.
The subject of data set [2] is HSV-2 acyclovir resistant strain. As to the kind of experiment: microbe, parasite or virus in culture. In kind it is cell-based. The settings on record: Human alphaherpesvirus 2.
Data set [3] in a line: In vitro lipoperoxidation test (TBA assay, MDA). The settings on record: 0.05% w/w added to liposomes, exposure to compound 9d.

With `O=C(O)c1ccc(-c2ccc(/C=C3\SC(=S)N(CCc4c[nH]c5ccccc45)C3=O)o2)cc1O` [Compound 9a, (Z)-4-(5-((3-(2-(1H-Indol-3-yl)ethyl)-4-oxo-2-thioxothiazolidin-5-ylidene)methyl)furan-2-yl)-2-hydroxybenzoic acid], the melting point was 254 °C (dec.). The CC50 in data set [1] came to 291 µM. For the same molecule, in the data set on HSV-2, the EC50 amounted to 0.63 µM and the EC90 stood at 2.05 µM.

On to `O=C(O)c1ccc(-c2ccc(/C=C3\SC(=S)N(CCc4ccc(Br)cc4)C3=O)o2)cc1O` [Compound 9b, (Z)-4-(5-((3-(4-bromophenethyl)-4-oxo-2-thio-oxothiazolidin-5-ylidene)methyl)furan-2-yl)-2-hydroxybenzoic acid], for which the melting point is 275 °C (dec.). Also, the CC50 in data set [1] was determined as 13.5 µM. Moreover, in the data set on HSV-2, the EC50 was 0.12 µM and the EC90 is 0.404 µM.

As for `COc1ccc(CCN2C(=O)/C(=C/c3ccc(-c4ccc(C(=O)O)c(O)c4)o3)SC2=S)cc1` [Compound 9c, (Z)-2-hydroxy-4-(5-((3-(4-methoxyphenethyl)-4-oxo-2-thioxothiazolidin-5-ylidene)methyl)furan-2-yl)benzoic acid], the melting point is 265 °C (dec.). Also, the CC50 in data set [1] came out at 9.87 µM. For the same molecule, in the data set with HSV-2, the EC50 worked out at 0.06 µM and the EC90 was determined as 0.145 µM.

In data set [1], `O=C1/C(=C/c2ccc(-c3cc(C(F)(F)F)ccc3Cl)o2)SC(=S)N1Cc1ccc(F)cc1` [Compound 9e, (Z)-5-((5-(2-chloro-5-(trifluoromethyl)phenyl)furan-2-yl)methylene)-3-(4-fluorobenzyl)-2-thioxothiazolidin-4-one] yielded a CC50 of more than 300 µM. Also, in the data set with HSV-2, the EC50 worked out at 0.767 µM and the EC90 was 5.74 µM.

`O=C1NC(=S)N(Cc2ccccc2)C(=O)/C1=C\c1ccc(-c2ccc(C(=O)O)c(O)c2)o1` [Compound 15a, (Z)-4-(5-((1-benzyl-4,6-dioxo-2-thioxotetrahydropyrimidin-5(2H)-ylidene)methyl)furan-2-yl)-2-hydroxybenzoic acid]: in the data set on HSV-2, the EC50 amounted to 1.03 µM and the 90% effect concentration (EC90) was 57.1 µM. The same molecule yielded a CC50 in “in vitro” of more than 300 µM.

Regarding `O=C1NC(=S)N(CCc2ccccc2)C(=O)/C1=C\c1ccc(-c2ccc(C(=O)O)c(O)c2)o1` [Compound 15b, (Z)-4-(5-((4,6-dioxo-1-phenethyl-2-thioxotetrahydropyrimidin-5(2H)-ylidene)methyl)furan-2-yl)-2-hydroxybenzoic acid], in the data set on HSV-2, the 50% effective concentration (EC50) was 0.0484 µM and the EC90 is 10.9 µM. In the data set “in vitro”, this molecule had a CC50 of more than 300 µM.

The molecule `Nc1nc2c(ncn2COCCO)c(=O)[nH]1` [acyclovir, reference compound] gave an EC50 in data set [2] of 319 µM.

With (±)-α-tocopherol [reference compound], the “reduction of the peroxidation of linoleic acid” value in data set [3] is 50.5%.
